Patent US6673345B2, “Anti-parasite astacin metalloendopeptidase antibodies” (Heska Corporation, priority 1994, dated 2004)
“Also recorded” adds a separate entry of the source.

How the values were obtained:
[1] = target: astacin (Astacus astacus, UniProt P07584); conditions: cited from earlier work
[2] = system: D. immitis larvae (L3); experiment: Effect of protease inhibitors on D. immitis larval molting in culture; assay type: cell-based, Dirofilaria immitis; conditions: for % reduction (of molt versus control): 72 hours; for % molt: L3 in NI medium, evaluated at 72 hours, control 82.6; for Observed movement and condition of treated larvae compared to controls: observed daily throughout the study; for Effect on ability of larvae to molt (in words): treatment of L3, ANOVA overall P=0.0001
[3] = system: ES proteins displaying metalloprotease activity (about 60 kD, about 95 kD, at least about 200 kD); conditions: 2 mM EDTA in reaction buffer, about 37° C., 66 hours

astacin, sequence (P07584 50-249 limits assumed): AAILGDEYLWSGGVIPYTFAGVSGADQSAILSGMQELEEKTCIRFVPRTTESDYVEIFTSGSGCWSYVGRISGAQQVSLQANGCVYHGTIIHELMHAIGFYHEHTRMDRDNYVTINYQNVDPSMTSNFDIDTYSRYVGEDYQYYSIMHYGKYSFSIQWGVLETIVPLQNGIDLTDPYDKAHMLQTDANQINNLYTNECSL

Compound | Inhibition of astacin activity [1] | % reduction (of molt versus control) ([2]; 1.0 mM inhibitor) [%] | % molt ([2]; 1.0 mM inhibitor) [%] | % reduction (of molt versus control) ([2]; 2.5 mM inhibitor) [%] | % molt ([2]; 2.5 mM inhibitor) [%] | % reduction (of molt versus control) ([2]; 5.0 mM inhibitor) [%] | % molt ([2]; 5.0 mM inhibitor) [%] | Observed movement and condition of treated larvae compared to controls [2] | Effect on ability of larvae to molt (in words) [2] | Inhibition of ES metalloprotease (collagenase) activity [3]
c1cnc2c(c1)ccc1cccnc12 [1,10-phenanthroline] | inhibited | – | – | – | – | – | – | – | – | –
CC(C)C[C@H](NC(=O)[C@@H](O)[C@H](N)Cc1ccccc1)C(=O)O [Bestatin] | – | 27.3 | 60.0 | 57.9 | 34.8 | 94.1 | 4.9 | moved much more slowly | significantly reduces the ability of the larvae to molt | –
O=C(O)CN(CCN(CC(=O)O)CC(=O)O)CC(=O)O [EDTA, ethylene diamine tetraacetic acid] | inhibited | – | – | – | – | – | – | – | – | completely inhibited
CC(C)C[C@H](NP(=O)(O)O[C@@H]1O[C@@H](C)[C@H](O)[C@@H](O)[C@H]1O)C(=O)N[C@@H](Cc1c[nH]c2ccccc12)C(=O)O [Phosphoramidon] | – | 48.4 | 42.6 | 85.1 | 12.3 | 100.0 | 0.0 | very active; also recorded: in poor shape by the end of the study | significantly reduces the ability of the larvae to molt | –
TIMP1: Tissue inhibitor of metalloproteinases, protein inhibitor of zinc endopeptidases | do not demonstrate inhibitory activity | – | – | – | – | – | – | – | – | –
